Results published in ChEMBL document CHEMBL3232787, “Lipopeptides from the tropical marine cyanobacterium Symploca sp” (J Nat Prod, 2014).

Experiments:
HCT-116 = experiment: Cytotoxicity against human HCT116 cells after 120 hrs by hemocytometer; assay type: functional, cell-based; conditions: HCT-116, 120 h
KB = experiment: Cytotoxicity against human KB cells; assay type: functional, cell-based

SMILES: CC[C@H](C)[C@@H](NC(=O)[C@H](CCC(N)=O)N(C)C(=O)[C@H](OC(=O)[C@@H](O)C(C)C)C(C)C)C(=O)N[C@@H](C)C(=O)N(C)[C@H](Cc1ccccc1)C(=O)N1CCC[C@H]1C(=O)OC
- IC50 (HCT-116): > 25 µM

SMILES: CC[C@H](C)[C@H](NC(=O)[C@H](CCC(N)=O)N(C)C(=O)[C@H](OC(=O)[C@@H](O)C(C)C)C(C)C)C(=O)N[C@@H](C)C(=O)N[C@H](Cc1ccccc1)C(=O)N1CCC[C@H]1C(=O)OC
- IC50 (HCT-116): 25 µM

SMILES: CC[C@H](C)[C@H](O)C(=O)N[C@@H](CC(C)C)C(=O)N(C)[C@@H](CCC(N)=O)C(=O)N[C@H](C(=O)NCC(=O)N(C)[C@H](Cc1ccccc1)C(=O)N1CCC[C@H]1C(=O)OC)[C@@H](C)CC [TASIAMIDE]
- IC50 (KB): 0.48 µM
